What follows are molecules tested against Neuronal acetylcholine receptor; alpha4/beta2 (Rattus norvegicus, UniProt P09483+P12390) (assay: Nicotinic acetylcholine receptor binding activity was determined by ability to displace [3H]- (-) cytisine binding from whole rat brain synaptic membranes.).
Chain of Neuronal acetylcholine receptor; alpha4/beta2 (P09483 whole entry): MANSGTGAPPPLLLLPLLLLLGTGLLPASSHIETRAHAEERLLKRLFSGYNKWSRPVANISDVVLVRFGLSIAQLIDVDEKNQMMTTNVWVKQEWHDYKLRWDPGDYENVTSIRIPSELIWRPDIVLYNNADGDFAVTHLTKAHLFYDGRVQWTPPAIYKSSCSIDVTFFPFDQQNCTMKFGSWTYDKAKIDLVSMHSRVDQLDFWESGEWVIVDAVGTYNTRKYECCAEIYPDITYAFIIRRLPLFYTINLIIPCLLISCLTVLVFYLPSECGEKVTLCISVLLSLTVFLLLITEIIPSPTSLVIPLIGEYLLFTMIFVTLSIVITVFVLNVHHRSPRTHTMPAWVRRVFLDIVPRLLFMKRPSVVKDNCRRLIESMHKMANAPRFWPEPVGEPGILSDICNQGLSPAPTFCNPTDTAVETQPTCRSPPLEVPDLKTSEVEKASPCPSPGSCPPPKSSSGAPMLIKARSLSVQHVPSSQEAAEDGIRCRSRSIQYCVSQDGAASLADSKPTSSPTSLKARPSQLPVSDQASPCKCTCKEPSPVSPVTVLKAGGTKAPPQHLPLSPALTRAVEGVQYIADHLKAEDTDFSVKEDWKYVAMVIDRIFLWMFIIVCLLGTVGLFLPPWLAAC
Chain of Neuronal acetylcholine receptor; alpha4/beta2 (P12390 whole entry): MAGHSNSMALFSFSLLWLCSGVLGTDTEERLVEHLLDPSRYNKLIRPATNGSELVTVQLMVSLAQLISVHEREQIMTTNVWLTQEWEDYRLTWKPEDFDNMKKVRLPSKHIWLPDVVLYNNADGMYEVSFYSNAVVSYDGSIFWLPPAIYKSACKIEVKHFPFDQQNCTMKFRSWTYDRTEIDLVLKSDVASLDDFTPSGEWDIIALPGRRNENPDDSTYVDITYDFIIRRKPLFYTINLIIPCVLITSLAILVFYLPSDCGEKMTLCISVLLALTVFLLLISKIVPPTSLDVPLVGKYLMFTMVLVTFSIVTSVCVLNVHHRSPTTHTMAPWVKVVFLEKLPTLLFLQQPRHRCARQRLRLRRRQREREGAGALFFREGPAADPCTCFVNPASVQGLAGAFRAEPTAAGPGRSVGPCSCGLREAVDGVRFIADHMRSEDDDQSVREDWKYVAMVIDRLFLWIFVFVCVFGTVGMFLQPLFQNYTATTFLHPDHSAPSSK
Work on `c1ncc(OC[C@@H]2CCN2)cn1` yielded a Ki of 0.13 nM. Work on `Clc1ccc(OCCN2CCCC2)nn1` yielded a Ki of 1300 nM. `CN1CCC[C@@H]1COc1cnccn1` showed a Ki of 406 nM. `CN1CC[C@H]1COc1cncnc1` gave a Ki of 6.54 nM. For `Clc1ccc(OC[C@@H]2CCN2)nn1`, the Ki was 15.4 nM. In the case of `CN1CCC(OCc2cccnc2)C1` (configuration not stated), the Ki is reported as 11900 nM. `CN1CCC(Oc2cnccn2)C1` (configuration not stated) was tested, and the Ki was 359 nM. `CN1CCC[C@H]1COc1cnccn1` was tested, and the Ki was 16.3 nM. In the case of `CN1CCC[C@@H]1COc1ccc(Cl)nn1`, the Ki is reported as 85.3 nM. Work on `c1ccc(OCCN2CCCC2)nc1` yielded a Ki of 160 nM. For `c1cncc(OCCN2CCCC2)c1`, the Ki was 240 nM. Work on `CN1CCC(Oc2ccc(Cl)nn2)C1` (configuration not stated) yielded a Ki of 46.4 nM. In the case of `CN1CCC(Oc2ccccn2)C1` (configuration not stated), the Ki is reported as over 10000 nM. With `CN1CCC[C@H]1COc1ncccn1` the Ki was 1220 nM. Work on `c1cnc(OCCN2CCCC2)cn1` yielded a Ki of 560 nM. Work on `CN1CCC[C@H]1COc1ccccn1` yielded a Ki of 495 nM. With `CN1CC[C@H]1COc1cccnn1` the Ki was 28.2 nM. Molecule `CN1CC[C@H](Oc2cccnc2)C1` has a Ki of 2.67 nM. Molecule `CN1CCC[C@H]1COc1cccnn1` has a Ki of 42.1 nM. `CN1CC[C@H]1COc1ccc(Cl)nn1` showed a Ki of 63.8 nM. `CN1CCC[C@H]1COc1ccc(Cl)nn1` showed a Ki of 29 nM. Molecule `CN1CC[C@@H](Oc2cccnc2)C1` has a Ki of 4.44 nM.

From ChEMBL document CHEMBL1131987, “Structure-activity studies on a novel series of cholinergic channel activators based on a heteroaryl ether framework” (Bioorg Med Chem Lett, 1999)
